Assay [1] concerns 293S cells transfected with EP2. Kind of assay: Kidney regeneration assay: BMP-7 expression by Northern blot in EP2 293S cells. As to conditions: 10^-6M, RNA at 8, 16 and 24 hours. Type of assay: cell-based, human. Here is the method: (§1) Methods: 293S and EP2 293S cells are grown in Dulbecco's Modified Egale medium (DMEM, Gibco, BRL; Gaithersburg, Md.). […] Cells are harvested and RNA is extracted at 8, 16 and 24 hours. Northern blot analysis of total […] is carried out by probing the blots with ^32P-labeled BMP-7 probe. The blots are normalized for RNA loading by hybridization with ^32P-labeled 18s ribosomal RNA probe. […] Given the known role of BMP-7 in kidney regeneration and the ability of an prostaglandin agonist to induce BMP-7 expression in 293S kidney cells in a time and receptor specific manner indicates a role for prostaglandin agonist in kidney regeneration.

The test system of a further assay is wild type 293S cells. Briefly: Kidney regeneration assay: BMP-7 expression by Northern blot in wild type 293S cells. The class given is cell-based, human. The note with it: parental 293S cell line, 10^-6M, RNA at 8, 16 and 24 hours. Here is the method: as §1

On to `CCCCC[C@H](O)/C=C/[C@H]1[C@H](O)CC(=O)[C@@H]1C/C=C\CCCC(=O)O` [PGE2, Prostaglandin E2], for which the “induction of expression of BMP-7” value is reported as “induce the expression of BMP-7 in the EP2 293S cells in a time dependent manner” in assay [1] and “generally not observed” in the assay with wild type 293S cells.

The record behind these values is patent US6531485B2, “Prostaglandin agonists” (priority 1997, dated 2003).
